Measured values taken from ChEMBL document CHEMBL1201862, “PubChem BioAssay data set” (2004).
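All cell lines were grown in 96-well plates and treated with compound for 48 hours. Here, GI50 denotes the concentration required for 50% inhibition of growth.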 Calls of active or inactive are those of the source. Cut-off read from the data, not from the text of the source: active = GI50 up to about 1.1 µM and inactive = higher.

What was measured:
Assay in all cases: NCI anticancer screen, dose series, 48 h
SNB-19 = test system: SNB-19
DMS-273 = test system: DMS-273
SK-MEL-2 = test system: SK-MEL-2
KM12 = test system: KM12
OVCAR-4 = test system: OVCAR-4
SK-MEL-28 = test system: SK-MEL-28
SF-539 = test system: SF-539
IGROV-1 = test system: IGROV-1
NCI-H23 = test system: NCI-H23
A549 = test system: A549
RPMI-8226 = test system: RPMI-8226
SF-295 = test system: SF-295
CAKI-1 = test system: CAKI-1
SK-OV-3 = test system: SK-OV-3
Malme-3M = test system: Malme-3M
HCC 2998 = test system: HCC 2998
MCF7 = test system: MCF7
NCI/ADR-RES = test system: NCI/ADR-RES
DU-145 = test system: DU-145
BT-549 = test system: BT-549

Measured: GI50

N#CC(C#N)=CSc1ccccc1
inactive: SNB-19 60 µM | DMS-273 21.4 µM | SK-MEL-2 18.7 µM | KM12 19.7 µM | OVCAR-4 47 µM | SK-MEL-28 23.8 µM | SF-539 20 µM | IGROV-1 17.3 µM | NCI-H23 57.4 µM | A549 19.6 µM | RPMI-8226 48 µM | SF-295 35 µM | CAKI-1 26.2 µM | SK-OV-3 59 µM

CC1=CC=C2C(C)(C)CC[C@@H]3OC(=O)[C@H]1[C@]23C
inactive: Malme-3M > 100 µM | HCC 2998 > 100 µM | SNB-19 > 100 µM | DMS-273 > 100 µM | SK-MEL-2 15.5 µM | KM12 > 100 µM | OVCAR-4 > 100 µM | SK-MEL-28 > 100 µM | SF-539 > 100 µM | IGROV-1 > 100 µM | NCI-H23 > 100 µM | A549 > 100 µM | SF-295 > 100 µM | CAKI-1 > 100 µM | SK-OV-3 > 100 µM

Nc1nc2c(ncn2CC(CO)CC(c2ccccc2)P(=O)(O)O)c(=O)[nH]1 (centres undefined)
inactive: Malme-3M > 100 µM | HCC 2998 > 100 µM | SNB-19 > 100 µM | DMS-273 > 100 µM | SK-MEL-2 > 100 µM | KM12 > 100 µM | SK-MEL-28 > 100 µM | SF-539 > 100 µM | IGROV-1 > 100 µM | NCI-H23 > 100 µM | A549 > 100 µM | RPMI-8226 > 100 µM | SF-295 > 100 µM | CAKI-1 > 100 µM | SK-OV-3 > 100 µM

ClC/C=C/COC1CCCCO1 (centres undefined)
inactive: Malme-3M > 100 µM | HCC 2998 > 100 µM | SNB-19 > 100 µM | DMS-273 62.2 µM | SK-MEL-2 > 100 µM | KM12 > 100 µM | OVCAR-4 > 100 µM | SF-539 > 100 µM | IGROV-1 > 100 µM | NCI-H23 > 100 µM | A549 > 100 µM | RPMI-8226 54.2 µM | SF-295 > 100 µM | CAKI-1 89.9 µM | SK-OV-3 > 100 µM

O=C1C2C=CC(n3[nH]c(=O)n(Cc4ccccc4)c3=O)CC2C(=O)N1c1cccc(Cl)c1 (centres undefined)
inactive: Malme-3M > 100 µM | HCC 2998 > 100 µM | SNB-19 > 100 µM | DMS-273 > 100 µM | SK-MEL-2 > 100 µM | KM12 > 100 µM | OVCAR-4 > 100 µM | SK-MEL-28 > 100 µM | SF-539 > 100 µM | IGROV-1 > 100 µM | NCI-H23 > 100 µM | A549 > 100 µM | SF-295 > 100 µM | CAKI-1 > 100 µM | SK-OV-3 > 100 µM

CCOC(=O)c1[nH]c(COC(C)=O)c(CCCOC(C)=O)c1CCCOC(C)=O
inactive: Malme-3M > 100 µM | HCC 2998 > 100 µM | SNB-19 > 100 µM | DMS-273 > 100 µM | SK-MEL-2 > 100 µM | KM12 > 100 µM | OVCAR-4 > 100 µM | SK-MEL-28 > 100 µM | SF-539 > 100 µM | IGROV-1 > 100 µM | NCI-H23 > 100 µM | A549 > 100 µM | SF-295 > 100 µM | CAKI-1 > 100 µM | SK-OV-3 > 100 µM

CN1C(=O)N(c2nc3ccccc3[nH]2)C(C)(C)C1=O
inactive: Malme-3M > 100 µM | SNB-19 > 100 µM | DMS-273 > 100 µM | SK-MEL-2 > 100 µM | KM12 > 100 µM | OVCAR-4 > 100 µM | SK-MEL-28 > 100 µM | SF-539 > 100 µM | IGROV-1 > 100 µM | NCI-H23 > 100 µM | A549 > 100 µM | RPMI-8226 > 100 µM | SF-295 > 100 µM | SK-OV-3 > 100 µM

O=c1c2ccccc2nc(-c2cccc(Cl)c2)n1NCC1(O)OCC(O)C(O)C1O (centres undefined)
inactive: Malme-3M > 100 µM | SNB-19 > 100 µM | DMS-273 > 100 µM | SK-MEL-2 > 100 µM | KM12 > 100 µM | OVCAR-4 > 100 µM | SK-MEL-28 > 100 µM | SF-539 > 100 µM | NCI-H23 > 100 µM | A549 > 100 µM | RPMI-8226 41.1 µM | SF-295 > 100 µM | CAKI-1 > 100 µM | SK-OV-3 > 100 µM

COc1ccc(/C=C/c2nnc(S)[nH]2)cc1OC
inactive: Malme-3M > 100 µM | HCC 2998 > 100 µM | SNB-19 > 100 µM | DMS-273 > 100 µM | SK-MEL-2 > 100 µM | OVCAR-4 > 100 µM | SK-MEL-28 > 100 µM | SF-539 > 100 µM | IGROV-1 > 100 µM | NCI-H23 > 100 µM | A549 > 100 µM | RPMI-8226 > 100 µM | SF-295 > 100 µM | CAKI-1 > 100 µM

CCOP(=O)(OCC)[C@H](O)c1ccsc1
inactive: Malme-3M > 100 µM | HCC 2998 > 100 µM | SNB-19 > 100 µM | SK-MEL-2 > 100 µM | KM12 > 100 µM | OVCAR-4 > 100 µM | SK-MEL-28 > 100 µM | MCF7 > 100 µM | SF-539 > 100 µM | NCI/ADR-RES > 100 µM | IGROV-1 > 100 µM | NCI-H23 > 100 µM | A549 > 100 µM | RPMI-8226 > 100 µM | SF-295 > 100 µM | DU-145 > 100 µM | CAKI-1 > 100 µM | BT-549 > 100 µM | SK-OV-3 > 100 µM

CCOC(=O)C1=C(C)N(c2ccc(C)cc2)C2=C(C(=O)N(c3ccccc3)C2c2ccccc2)C1c1ccccc1 (centres undefined)
inactive: Malme-3M > 25 µM | HCC 2998 18.4 µM | SNB-19 > 25 µM | DMS-273 > 25 µM | SK-MEL-2 > 25 µM | OVCAR-4 11.3 µM | SK-MEL-28 > 25 µM | SF-539 > 25 µM | IGROV-1 > 25 µM | NCI-H23 11.9 µM | A549 10.7 µM | RPMI-8226 14 µM | SF-295 22.2 µM

C/C(=N\O)c1cccc(Nc2c3ccccc3nc3occc23)c1
inactive: Malme-3M 2.86 µM | HCC 2998 4.89 µM | SNB-19 17.1 µM | SK-MEL-2 4.18 µM | KM12 6.11 µM | OVCAR-4 1.8 µM | SK-MEL-28 4.02 µM | MCF7 2.39 µM | SF-539 4.25 µM | NCI/ADR-RES 2.3 µM | IGROV-1 2.77 µM | NCI-H23 4.99 µM | A549 4.93 µM | RPMI-8226 3.07 µM | SF-295 4.24 µM | DU-145 14.8 µM | CAKI-1 1.96 µM | BT-549 3.29 µM | SK-OV-3 10.4 µM

O=C1C(Cl)C(c2cc(Br)cc(Br)c2O)N1n1cnc2ccccc2c1=O (centres undefined)
inactive: Malme-3M 19 µM | HCC 2998 30.2 µM | SNB-19 30.3 µM | DMS-273 29.4 µM | SK-MEL-2 21.1 µM | KM12 25.1 µM | OVCAR-4 9.55 µM | SK-MEL-28 19.6 µM | IGROV-1 23.4 µM | NCI-H23 23.8 µM | A549 65.9 µM | RPMI-8226 12.6 µM | SF-295 6.76 µM | CAKI-1 17.7 µM | SK-OV-3 13.6 µM

CC(=O)O[C@@H]1C[C@@]23C[C@@]24CC[C@H](OC2OCC(O)C(O)C2O)C(C)(C)[C@@H]4CC=C3[C@]2(C)C[C@@H]3OC4(C[C@@H](C)[C@@H]3[C@@]12C)OC(O)[C@@]1(C)O[C@@H]41 (some centres undefined)
inactive: Malme-3M 33.2 µM | HCC 2998 20.6 µM | SNB-19 75.2 µM | SK-MEL-2 19.7 µM | KM12 33.7 µM | OVCAR-4 48.4 µM | SK-MEL-28 41.2 µM | MCF7 30.8 µM | SF-539 20.8 µM | NCI/ADR-RES 43.9 µM | IGROV-1 36.5 µM | NCI-H23 34 µM | A549 48.9 µM | RPMI-8226 19.6 µM | SF-295 25.7 µM | DU-145 43.2 µM | CAKI-1 46.1 µM | BT-549 27.9 µM | SK-OV-3 30.4 µM

CCOC(=O)CCC(NC(=O)OCc1ccccc1)C(=O)NNC(=O)OC(C)(C)C (centres undefined)
inactive: Malme-3M > 100 µM | HCC 2998 > 100 µM | SNB-19 > 100 µM | SK-MEL-2 > 100 µM | KM12 > 100 µM | OVCAR-4 > 100 µM | SK-MEL-28 > 100 µM | MCF7 > 100 µM | SF-539 > 100 µM | NCI/ADR-RES > 100 µM | IGROV-1 > 100 µM | NCI-H23 > 100 µM | A549 > 100 µM | RPMI-8226 > 100 µM | SF-295 > 100 µM | DU-145 > 100 µM | CAKI-1 > 100 µM | BT-549 > 100 µM | SK-OV-3 > 100 µM

CCOC(=O)Cn1nnc2ccc(Nc3nc4ccccc4nc3-c3ccccc3)cc21
inactive: Malme-3M > 100 µM | HCC 2998 17.3 µM | SNB-19 70 µM | SK-MEL-2 > 100 µM | KM12 > 100 µM | OVCAR-4 68.9 µM | SK-MEL-28 > 100 µM | MCF7 > 100 µM | SF-539 59.6 µM | NCI/ADR-RES > 100 µM | IGROV-1 > 100 µM | NCI-H23 > 100 µM | A549 > 100 µM | RPMI-8226 > 100 µM | SF-295 85.5 µM | DU-145 11 µM | CAKI-1 > 100 µM | BT-549 > 100 µM | SK-OV-3 90.8 µM

CN(C)/C=C/C(=O)c1cccc(C(=O)/C=C/N(C)C)n1
inactive: Malme-3M > 100 µM | HCC 2998 > 100 µM | SNB-19 > 100 µM | DMS-273 > 100 µM | SK-MEL-2 > 100 µM | KM12 > 100 µM | OVCAR-4 > 100 µM | SK-MEL-28 > 100 µM | SF-539 > 100 µM | IGROV-1 > 100 µM | NCI-H23 > 100 µM | A549 > 100 µM | RPMI-8226 > 100 µM | SF-295 > 100 µM | SK-OV-3 > 100 µM
